Patent US12508246B2, “Uses of complex of angiotensin II receptor antagonist metabolite and NEP inhibitor in treating heart failure” (SHENZHEN SALUBRIS PHARMACEUTICALS CO. LTD, priority 2019, dated 2025)
Where “and” joins values, the source holds several entries; their conditions need not be identical. Equal entries are not always repeated. Marks after values point to notes of the source that are not given here.

Key:
[1] = system: dogs with heart failure (preserved ejection fraction); test: Pharmacodynamic study in the canine chronic heart failure model-preserved ejection fraction (LAD ligation, echocardiography); type: in vivo; settings: HFpEF dog model; 100 mpk (mix: EXP3174 52 mpk + sacubitril 48 mpk) p.o. qd, from 3 d after modeling for 2 weeks; Mean ± SD; model 51.80, sham 68.15
Experimental: 5.1 Methods: After the animals arrived at the facility, they were on adaptive feeding, and randomized after echocardiography and ECG, and then the experiment was started. On the day of operation, animals were anesthetized by intramuscular injection of Zoletil (5 mg/kg). The tracheae of the anesthetized dogs were connected to the ventilator, and then they were fixed in a supine position; their chests were opened between the third and fourth ribs, the left anterior descending coronary artery was ligated to close the thoracic cavity, and then the skin was sutured. After the animals recovered for 3 days after operation, they were given therapeutic drugs by gavage, once a day for two consecutive weeks. During the experiment, the animals' living conditions were observed every day, and their abnormal conditions were recorded. After 14 days of dosing, echocardiography was performed.
5.2 Modeling: On the day before operation, the animals were fasted overnight. On the day of operation, the animals were intramuscularly injected with Zoletil (dose: 5 mg/kg) to induce anesthesia, and also were intramuscularly administered with atropine sulfate injection (dose: 0.5 mg/dog). After the animals were anesthetized, their hair on the left chest was shaved clean. […]

[2] = system: dogs with heart failure (reduced ejection fraction); test: Pharmacodynamic study in the canine chronic heart failure model-reduced ejection fraction (LAD ligation, echocardiography); type: in vivo; settings: HFrEF dog model; 100 mpk (mix: EXP3174 52 mpk + sacubitril 48 mpk) p.o. qd, from 3 d after modeling for 6 weeks; Mean ± SD; model 35.82, sham 66.20
Experimental: 4.1 Methods: After the animals arrived at the facility, they were on adaptive feeding, and randomized after echocardiography and ECG, and then the experiment was started. On the day of operation, animals were anesthetized by intramuscular injection of Zoletil (5 mg/kg). The trachea of the anesthetized dogs were connected to the ventilator, and then they were fixed in a supine position, their chest was opened between the third and fourth ribs, the left anterior descending coronary artery was ligated to close the thoracic cavity, and then the skin was sutured. After the animals recovered for 3 days after operation, they were given therapeutic drugs by gavage, once a day for […] consecutive weeks. During the experiment, animal's living conditions were observed every day, and their abnormal conditions were recorded. After 42 days of dosing, echocardiography was performed.
4.2 Modeling: On the day before operation, the animals were fasted overnight. On the day of operation, the animals were intramuscularly injected with Zoletil (dose: 5 mg/kg) to induce anesthesia, and also were intramuscularly administered with atropine sulfate injection (dose: 0.5 mg/dog). After the animals were anesthetized, their hair on the left chest was shaved clean. […]

**Q.** Which results are given for “(EXP3174·AHU377)^3−·1.5 Ca^2+·2H2O [Complex of the invention]”?
**A.** endpoint left ventricular ejection fraction LVEF (%) [1]: 58.04 ± 1.29***^@ %; endpoint left ventricular ejection fraction LVEF (%) [2]: 51.87 ± 1.01***^@$ %

**Q.** Which “endpoint left ventricular ejection fraction LVEF (%)” value [1] does the source give for “Valsartan-Sacubitril sodium salt complex [LCZ696]” here?
**A.** 57.98% and 57.98 ± 2.64 %

**Q.** And the “endpoint left ventricular ejection fraction LVEF (%)” value [2]?
**A.** 46.45% and 46.45 ± 3.39 %
